# Source: patent US9156801B2, “2-substituted oleanolic acid derivative, method preparing for same, and application thereof” (HANGZHOU BENSHENG PHARMACEUTICAL CO., LTD., priority 2011, dated 2015)
# Assays:
# RPMI8226 cell line = experiment: multiple myeloma cell growth inhibition, MTT; type: cell-based; conditions: Homo sapiens, RPMI-8226; for inhibition at 16 µg/mL: RPMI8226, 16 μg/mL compound, 72 h, read-out: IR (cell proliferation inhibition rate); for IC50: RPMI8226, 72 h
# Method in brief: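 RPMI8226 cells (6000 per well) in RPMI 1640 with 10% FBS were exposed to several concentrations of compound for 72 h at 37° C and 5% CO2. Viable cells were quantified by MTT, with inhibition set to 0% in untreated controls.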
# NB4 cell line = experiment: leukemia cell growth inhibition, MTT; type: cell-based; conditions: Homo sapiens, NB-4; for inhibition at 16 µg/mL: NB4, 16 μg/mL compound, 72 h, read-out: IR (cell proliferation inhibition rate); for IC50: NB4, 72 h
# Method in brief: (§1)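 6000 cells per well in RPMI 1640 with 10% FBS were exposed to graded concentrations of the oleanolic acid derivatives for 72 hours at 37° C under 5% CO2. Viable cells were quantified by MTT, with untreated cells defining 0% inhibition.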
# Kasumi-1 cell line = experiment: leukemia cell growth inhibition, MTT; type: cell-based; conditions: Homo sapiens; for inhibition at 16 µg/mL: Kasumi-1, 16 μg/mL compound, 72 h, read-out: IR (cell proliferation inhibition rate); for IC50: Kasumi-1, 72 h
# Method in brief: as §1
# H9 cell line = experiment: leukemia cell growth inhibition, MTT; type: cell-based; conditions: Homo sapiens; for IC50: H9, 72 h; for inhibition at 16 µg/mL: H9, 16 μg/mL compound, 72 h, read-out: IR (cell proliferation inhibition rate)
# Method in brief: as §1
# Jurkat cell line = experiment: leukemia cell growth inhibition, MTT; type: cell-based; conditions: Homo sapiens, 72 h; for inhibition at 16 µg/mL: 16 μg/mL compound, read-out: IR (cell proliferation inhibition rate)
# Method in brief: as §1
# K562/adr cell line = experiment: leukemia cell growth inhibition, MTT; type: cell-based; conditions: Homo sapiens, 72 h; for IC50: K562/Adr; for inhibition at 16 µg/mL: K562/adr, 16 μg/mL compound, read-out: IR (cell proliferation inhibition rate)
# Method in brief: as §1
# Hep G2 cell line = experiment: solid tumor cell growth inhibition, MTT; type: cell-based, human; conditions: Homo sapiens; for inhibition at 16 µg/mL: HepG2, 72 h, Hep G2, 16 μg/mL compound, 72 h, read-out: IR (cell proliferation inhibition rate); for IC50: HepG2, Hep G2, 72 h
# Method in brief: (§2)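 Cells (4000/well) in DMEM high glucose with 10% FBS were pre-cultured 24 h at 37° C, 5% CO2, then exposed to graded compound concentrations for 72 h. Viable cells were measured by MTT, with untreated controls set at 0% inhibition.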
# Hela cell line = experiment: solid tumor cell growth inhibition, MTT; type: cell-based; conditions: Homo sapiens, 72 h; for IC50: HeLa; for inhibition at 16 µg/mL: Hela, 16 μg/mL compound, read-out: IR (cell proliferation inhibition rate)
# Method in brief: as §2
# CNE cell line = experiment: solid tumor cell growth inhibition, MTT; type: cell-based; conditions: Homo sapiens, 72 h; for inhibition at 16 µg/mL: 16 μg/mL compound, read-out: IR (cell proliferation inhibition rate)
# Method in brief: as §2
# MG-63 cell line = experiment: solid tumor cell growth inhibition, MTT; type: cell-based; conditions: Homo sapiens; for IC50: MG-63, 72 h; for inhibition at 16 µg/mL: MG-63, 16 μg/mL compound, 72 h, read-out: IR (cell proliferation inhibition rate)
# Method in brief: as §2
# U87 MG cell line = experiment: solid tumor cell growth inhibition, MTT; type: cell-based; conditions: Homo sapiens, U-87 MG, 72 h; for inhibition at 16 µg/mL: 16 μg/mL compound, read-out: IR (cell proliferation inhibition rate)
# Method in brief: as §2
# Becap37 cell line = experiment: solid tumor cell growth inhibition, MTT; type: cell-based; conditions: Homo sapiens; for inhibition at 16 µg/mL: Becap37, 16 μg/mL compound, 72 h, read-out: IR (cell proliferation inhibition rate); for IC50: Becap37, 72 h
# Method in brief: as §2
# CaES-17 cell line = experiment: solid tumor cell growth inhibition, MTT; type: cell-based; conditions: Homo sapiens, CaEs17; for inhibition at 16 µg/mL: CaES-17, 16 μg/mL compound, 72 h, read-out: IR (cell proliferation inhibition rate); for IC50: CaES-17, 72 h
# Method in brief: as §2
# SK-OV-3 cell line = experiment: solid tumor cell growth inhibition, MTT; type: cell-based; conditions: Homo sapiens; for IC50: SK-OV-3, 72 h; for inhibition at 16 µg/mL: SK-OV-3, 16 μg/mL compound, 72 h, read-out: IR (cell proliferation inhibition rate)
# Method in brief: as §2
# A549 cell line = experiment: solid tumor cell growth inhibition, MTT; type: cell-based; conditions: Homo sapiens; for IC50: A549, 72 h; for inhibition at 16 µg/mL: A549, 16 μg/mL compound, 72 h, read-out: IR (cell proliferation inhibition rate)
# Method in brief: as §2
# PANC-1 cell line = experiment: solid tumor cell growth inhibition, MTT; type: cell-based; conditions: Homo sapiens; for IC50: PANC-1, 72 h; for inhibition at 16 µg/mL: PANC-1, 16 μg/mL compound, 72 h, read-out: IR (cell proliferation inhibition rate)
# Method in brief: as §2
# MGC 803 cell line = experiment: solid tumor cell growth inhibition, MTT; type: cell-based; conditions: Homo sapiens; for inhibition at 16 µg/mL: MGC 803, 16 μg/mL compound, 72 h, read-out: IR (cell proliferation inhibition rate); for IC50: MGC 803, 72 h
# Method in brief: as §2
# PC-3 cell line = experiment: solid tumor cell growth inhibition, MTT; type: cell-based; conditions: Homo sapiens; for IC50: PC-3, 72 h; for inhibition at 16 µg/mL: PC-3, 16 μg/mL compound, 72 h, read-out: IR (cell proliferation inhibition rate)
# Method in brief: as §2
# RKO cell line = experiment: solid tumor cell growth inhibition, MTT; type: cell-based; conditions: Homo sapiens, 72 h; for inhibition at 16 µg/mL: 16 μg/mL compound, read-out: IR (cell proliferation inhibition rate)
# Method in brief: as §2
# Hep-2 cell line = experiment: solid tumor cell growth inhibition, MTT; type: cell-based; conditions: Homo sapiens; for IC50: HEp-2, 72 h; for inhibition at 16 µg/mL: Hep-2, 16 μg/mL compound, 72 h, read-out: IR (cell proliferation inhibition rate)
# Method in brief: as §2
IC50 (RPMI8226 cell line) [mg/L],IC50 (NB4 cell line) [mg/L],IC50 (Kasumi-1 cell line) [mg/L],IC50 (H9 cell line) [mg/L],IC50 (Jurkat cell line) [mg/L],IC50 (K562/adr cell line) [mg/L],IC50 (Hep G2 cell line) [mg/L],IC50 (Hela cell line) [mg/L],IC50 (CNE cell line) [mg/L],IC50 (MG-63 cell line) [mg/L],Compound,inhibition at 16 µg/mL (RPMI8226 cell line) [%],inhibition at 16 µg/mL (NB4 cell line) [%],inhibition at 16 µg/mL (Kasumi-1 cell line) [%],inhibition at 16 µg/mL (H9 cell line) [%],inhibition at 16 µg/mL (Jurkat cell line) [%],inhibition at 16 µg/mL (K562/adr cell line) [%],inhibition at 16 µg/mL (Hep G2 cell line) [%],inhibition at 16 µg/mL (Hela cell line) [%],inhibition at 16 µg/mL (CNE cell line) [%],inhibition at 16 µg/mL (MG-63 cell line) [%],also measured
> 16,> 16,> 16,> 16,> 16,12.1,> 16,> 16,> 16,> 16,COC(=O)[C@]12CCC(C)(C)CC1C1=CCC3[C@@]4(C)CC(C(=O)NCCC(C)C)C(=O)C(C)(C)C4CC[C@@]3(C)[C@]1(C)CC2 (stereo partly drawn) [BS-OA-031],4.4,-0.9,10,31.9,-28.5,62.2,6.7,2.5,15.8,-1.3,inhibition at 16 µg/mL (U87 MG cell line): 5.3%; IC50 (U87 MG cell line): > 16 mg/L; inhibition at 16 µg/mL (Becap37 cell line): -5.8%; IC50 (Becap37 cell line): > 16 mg/L; inhibition at 16 µg/mL (CaES-17 cell line): -4.7%; IC50 (CaES-17 cell line): > 16 mg/L; IC50 (SK-OV-3 cell line): > 16 mg/L; inhibition at 16 µg/mL (SK-OV-3 cell line): 18%; IC50 (A549 cell line): > 16 mg/L; inhibition at 16 µg/mL (A549 cell line): -6.3%; IC50 (PANC-1 cell line): > 16 mg/L; inhibition at 16 µg/mL (PANC-1 cell line): -1.4%; inhibition at 16 µg/mL (MGC 803 cell line): 0.8%; IC50 (MGC 803 cell line): > 16 mg/L; IC50 (PC-3 cell line): > 16 mg/L; inhibition at 16 µg/mL (PC-3 cell line): 9.8%; inhibition at 16 µg/mL (RKO cell line): -12.1%; IC50 (RKO cell line): > 16 mg/L; IC50 (Hep-2 cell line): > 16 mg/L; inhibition at 16 µg/mL (Hep-2 cell line): 10.5%
> 16,10.7,> 16,15.5,> 16,10.8,> 16,> 16,> 16,> 16,CCOCCNC(=O)C1C[C@@]2(C)C(CC[C@]3(C)C2CC=C2C4CC(C)(C)CC[C@]4(C(=O)OC)CC[C@]23C)C(C)(C)C1=O (stereo partly drawn) [BS-OA-053],29.5,71.3,23.2,54.6,13,60.9,6.8,27.5,9.9,-32.5,inhibition at 16 µg/mL (U87 MG cell line): 20.1%; IC50 (U87 MG cell line): > 16 mg/L; inhibition at 16 µg/mL (Becap37 cell line): -10.2%; IC50 (Becap37 cell line): > 16 mg/L; inhibition at 16 µg/mL (CaES-17 cell line): -13.1%; IC50 (CaES-17 cell line): > 16 mg/L; IC50 (SK-OV-3 cell line): > 16 mg/L; inhibition at 16 µg/mL (SK-OV-3 cell line): 22.7%; IC50 (A549 cell line): > 16 mg/L; inhibition at 16 µg/mL (A549 cell line): 2%; IC50 (PANC-1 cell line): > 16 mg/L; inhibition at 16 µg/mL (PANC-1 cell line): -3.3%; inhibition at 16 µg/mL (MGC 803 cell line): 7.8%; IC50 (MGC 803 cell line): > 16 mg/L; IC50 (PC-3 cell line): > 16 mg/L; inhibition at 16 µg/mL (PC-3 cell line): 38.8%; inhibition at 16 µg/mL (RKO cell line): -55.6%; IC50 (RKO cell line): > 16 mg/L; IC50 (Hep-2 cell line): > 16 mg/L; inhibition at 16 µg/mL (Hep-2 cell line): -10%
0.61,2.96,3.95,2.67,1.67,0.68,1.94,3.11,3.64,1.62,CCN(CC)CCCNC(=O)C1C[C@]2(C)[C@H]3CC=C4[C@@H]5CC(C)(C)CC[C@]5(C(=O)OC)CC[C@@]4(C)[C@]3(C)CC[C@H]2C(C)(C)C1=O (stereo partly drawn) [BS-OA-035],99.1,99.8,97,97.5,96.6,99.6,> 96,98.1,99,100,inhibition at 16 µg/mL (U87 MG cell line): 97.1%; IC50 (U87 MG cell line): 2.7 mg/L; inhibition at 16 µg/mL (Becap37 cell line): 98.6%; IC50 (Becap37 cell line): 5.2 mg/L; inhibition at 16 µg/mL (CaES-17 cell line): 98%; IC50 (CaES-17 cell line): 2.74 mg/L; IC50 (SK-OV-3 cell line): 3.72 mg/L; inhibition at 16 µg/mL (SK-OV-3 cell line): 98.6%; IC50 (A549 cell line): 2.02 mg/L; inhibition at 16 µg/mL (A549 cell line): 97.3%; IC50 (PANC-1 cell line): 4.89 mg/L; inhibition at 16 µg/mL (PANC-1 cell line): 99.8%; inhibition at 16 µg/mL (MGC 803 cell line): 98.9%; IC50 (MGC 803 cell line): 2.56 mg/L; IC50 (PC-3 cell line): 5 mg/L; inhibition at 16 µg/mL (PC-3 cell line): 98.5%; inhibition at 16 µg/mL (RKO cell line): 97.2%; IC50 (RKO cell line): 2.39 mg/L; IC50 (Hep-2 cell line): 5.34 mg/L; inhibition at 16 µg/mL (Hep-2 cell line): 98.5%
